From patent US20250098679A1, “HERBICIDAL PYRIDONE DERIVATIVES” (SYNGENTA CROP PROTECTION AG, priority 2021, published 2025)

How the values were obtained:
Assay type in all cases: in vivo
[1] = system: Setaria faberi (SETFA); assay: Pre-emergence Test, Setaria faberi (SETFA); details: 1000 g/ha, evaluated after 13 days
[2] = system: Zea mays (ZEAMX); assay: Pre-emergence Test, Zea mays (ZEAMX); details: evaluated after 13 days
[3] = system: Ipomoea hederacea (IPOHE); assay: Pre-emergence Test, Ipomoea hederacea (IPOHE); details: evaluated after 13 days
[4] = system: Amaranthus palmeri (AMAPA); assay: Pre-emergence Test, Amaranthus palmeri (AMAPA); details: evaluated after 13 days
[5] = system: Amaranthus retoflexus (AMARE); assay: Pre-emergence Test, Amaranthus retoflexus (AMARE); details: evaluated after 13 days
[6] = system: Setaria faberi (SETFA); assay: Post-emergence Test, Setaria faberi (SETFA); parameters: key to percentage damage caused to the plant, SETFA (five-point scale): 5=81-100%, 4=61-80%, 3=41-60%, 2=21-40%, 1=0-20% damage; details: evaluated after 13 days
Method in brief: (§1)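 Pots sprayed with compound in acetone/water (50:50) with 0.5% Tween 20, at 1000 g/ha unless noted, glasshouse 24/16 °C, 14 h light, 65% humidity. Damage scored 13 days after spraying on a five-point scale (5=81-100% to 1=0-20%).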

[7] = system: Echinochloa crus-galli (ECHCG); assay: Post-emergence Test, Echinochloa crus-galli (ECHCG); parameters: key to percentage damage caused to the plant, ECHCG (five-point scale): 5=81-100%, 4=61-80%, 3=41-60%, 2=21-40%, 1=0-20% damage; details: evaluated after 13 days; for Post-emergence Test ECHCG, percentage damage caused to the plant (five-point scale): 250 g/Ha (*)
Method in brief: as §1

[8] = system: Zea mays (ZEAMX); assay: Post-emergence Test, Zea mays (ZEAMX); parameters: key to percentage damage caused to the plant, ZEAMX (five-point scale): 5=81-100%, 4=61-80%, 3=41-60%, 2=21-40%, 1=0-20% damage; details: evaluated after 13 days
Method in brief: as §1

[9] = system: Ipomoea hederacea (IPOHE); assay: Post-emergence Test, Ipomoea hederacea (IPOHE); parameters: key to percentage damage caused to the plant, IPOHE (five-point scale): 5=81-100%, 4=61-80%, 3=41-60%, 2=21-40%, 1=0-20% damage; details: evaluated after 13 days
Method in brief: as §1

[10] = system: Amaranthus palmeri (AMAPA); assay: Post-emergence Test, Amaranthus palmeri (AMAPA); parameters: key: 5=81-100%, 4=61-80%, 3=41-60%, 2=21-40%, 1=0-20% damage; details: evaluated after 13 days
Method in brief: as §1

[11] = system: Amaranthus retoflexus (AMARE); assay: Post-emergence Test, Amaranthus retoflexus (AMARE); parameters: key to percentage damage caused to the plant, AMARE (five-point scale): 5=81-100%, 4=61-80%, 3=41-60%, 2=21-40%, 1=0-20% damage; details: evaluated after 13 days
Method in brief: as §1

[12] = system: Echinochloa crus-galli (ECHCG); assay: Pre-emergence Test, Echinochloa crus-galli (ECHCG); details: evaluated after 13 days

| Structure (SMILES) | Pre-emergence Test SETFA, percentage damage caused to the plant (five-point scale) [1] | Pre-emergence Test ZEAMX, percentage damage caused to the plant (five-point scale) ([2]; 1000 g/ha) | Pre-emergence Test IPOHE, percentage damage caused to the plant (five-point scale) ([3]; 1000 g/ha) | Pre-emergence Test AMAPA, percentage damage caused to the plant (five-point scale) ([4]; 1000 g/ha) | Pre-emergence Test AMARE, percentage damage caused to the plant (five-point scale) ([5]; 1000 g/ha) | percentage damage caused to the plant, SETFA (five-point scale) ([6]; 1000 g/ha) | percentage damage caused to the plant, ECHCG (five-point scale) ([7]; 1000 g/ha) | percentage damage caused to the plant, ZEAMX (five-point scale) ([8]; 1000 g/ha) | percentage damage caused to the plant, IPOHE (five-point scale) ([9]; 1000 g/ha) | percentage damage caused to the plant, AMAPA (five-point scale) ([10]; 1000 g/ha) | percentage damage caused to the plant, AMARE (five-point scale) ([11]; 1000 g/ha) | Pre-emergence Test ECHCG, percentage damage caused to the plant (five-point scale) ([12]; 1000 g/ha) | Post-emergence Test SETFA, percentage damage caused to the plant (five-point scale) ([6]; 1000 g/ha) | Post-emergence Test ECHCG, percentage damage caused to the plant (five-point scale) [7] | Post-emergence Test ZEAMX, percentage damage caused to the plant (five-point scale) ([8]; 250 g/Ha (*)) | Post-emergence Test ZEAMX, percentage damage caused to the plant (five-point scale) ([8]; 1000 g/ha) | Post-emergence Test IPOHE, percentage damage caused to the plant (five-point scale) ([9]; 250 g/Ha (*)) | Post-emergence Test IPOHE, percentage damage caused to the plant (five-point scale) ([9]; 1000 g/ha) | Post-emergence Test AMAPA, percentage damage caused to the plant (five-point scale) ([10]; 250 g/Ha (*)) | Post-emergence Test AMAPA, percentage damage caused to the plant (five-point scale) ([10]; 1000 g/ha) | also measured |
| --- | --- | --- | --- | --- | --- | --- | --- | --- | --- | --- | --- | --- | --- | --- | --- | --- | --- | --- | --- | --- | --- |
| CCOC(=O)c1c(-c2ccc(Cl)c(Cl)c2)n(CC)c(Cn2ncc3cnc(Cl)cc32)cc1=O [Compound 52, ethyl 6-[(6-chloropyrazolo[4,3-c]pyridin-1-yl)methyl]-2-(3,4-dichlorophenyl)-1-ethyl-4-oxo-pyridine-3-carboxylate] | 0 | 0 | 0 | 1 (1=0-20%) | 1 (1=0-20%) | 1 (1=0-20%) | 1 (1=0-20%) | 0 | 2 (2=21-40%) | 2 (2=21-40%) | 0 | – | – | – | – | – | – | – | – | – | – |
| CCn1c(Cn2cc(C(=O)OC)cn2)cc(=O)c(C(=O)OC(C)(C)C)c1-c1ccc(Cl)c(Cl)c1 [Compound 61, tert-butyl 2-(3,4-dichlorophenyl)-1-ethyl-6-[(4-methoxycarbonyl-pyrazol-1-yl)methyl]-4-oxo-pyridine-3-carboxylate] | 1 (1=0-20%) | 0 | 0 | 1 (1=0-20%) | 1 (1=0-20%) | 1 (1=0-20%) | 0 | 0 | 0 | 0 | 1 (1=0-20%) | – | – | – | – | – | – | – | – | – | – |
| CCn1c(Cn2ncc(Cl)c2C)cc(=O)c(C(=O)O)c1-c1ccc(Cl)c(Cl)c1 [Compound 88, 6-[(4-chloro-5-methyl-pyrazol-1-yl)methyl]-2-(3,4-dichlorophenyl)-1-ethyl-4-oxo-pyridine-3-carboxylic acid] | 2 (2=21-40%) | 1 (1=0-20%) | 2 (2=21-40%) | – | – | 4 (4=61-80%) | 2 (2=21-40%) | 3 (3=41-60%) | 2 (2=21-40%) | 2 (2=21-40%) | 1 (1=0-20%) | 3 (3=41-60%) | – | – | – | – | – | – | – | – | percentage damage caused to the plant, SETFA (five-point scale) ([6]; 250 g/Ha): 0; percentage damage caused to the plant, ECHCG (five-point scale) ([7]; 250 g/Ha): 3 (3=41-60%); percentage damage caused to the plant, ZEAMX (five-point scale) ([8]; 250 g/Ha): 0; percentage damage caused to the plant, IPOHE (five-point scale) ([9]; 250 g/Ha): 2 (2=21-40%); percentage damage caused to the plant, AMAPA (five-point scale) ([10]; 250 g/Ha): 1 (1=0-20%); percentage damage caused to the plant, AMARE (five-point scale) ([11]; 250 g/Ha): 1 (1=0-20%) |
| CCn1c(Cn2ccc(-c3nccs3)n2)cc(=O)c(C(=O)O)c1-c1ccc(Cl)c(Cl)c1 [Compound 201, 2-(3,4-dichlorophenyl)-1-ethyl-4-oxo-6-[(3-thiazol-2-ylpyrazol-1-yl)methyl]pyridine-3-carboxylic acid] | – | 0 | 1 (1=0-20%) | 0 | 0 | – | – | – | – | – | – | 0 | 2 (2=21-40%) | 1 (1=0-20%) | 0 | 1 (1=0-20%) | 0 | 2 (2=21-40%) | 0 | 1 (1=0-20%) | Post-emergence Test AMARE, percentage damage caused to the plant (five-point scale) ([11]; 250 g/Ha (*)): 0; Post-emergence Test AMARE, percentage damage caused to the plant (five-point scale) ([11]; 1000 g/ha): 2 (2=21-40%) |
| CCn1c(Cn2ccc(-c3cnccn3)n2)cc(=O)c(C(=O)O)c1-c1ccc(Cl)c(Cl)c1 [Compound 203, 2-(3,4-dichlorophenyl)-1-ethyl-4-oxo-6-[(3-pyrazin-2-ylpyrazol-1-yl)methyl]pyridine-3-carboxylic acid] | – | 1 (1=0-20%) | 0 | 1 (1=0-20%) | 1 (1=0-20%) | – | – | – | – | – | – | 2 (2=21-40%) | 1 (1=0-20%) | 1 (1=0-20%) | 1 (1=0-20%) | 1 (1=0-20%) | 2 (2=21-40%) | 1 (1=0-20%) | 1 (1=0-20%) | 0 | Post-emergence Test AMARE, percentage damage caused to the plant (five-point scale) ([11]; 250 g/Ha (*)): 1 (1=0-20%); Post-emergence Test AMARE, percentage damage caused to the plant (five-point scale) ([11]; 1000 g/ha): 0 |
| CCn1c(Cn2ccc(/C=N/OC)n2)cc(=O)c(C(=O)O)c1-c1ccc(Cl)c(Cl)c1 [Compound 204, 2-(3,4-dichlorophenyl)-1-ethyl-6-[[3-[(E)-methoxyiminomethyl]pyrazol-1-yl]methyl]-4-oxo-pyridine-3-carboxylic acid] | – | 2 (2=21-40%) | 4 (4=61-80%) | 1 (1=0-20%) | 1 (1=0-20%) | – | – | – | – | – | – | 4 (4=61-80%) | 4 (4=61-80%) | 3 (3=41-60%) | 2 (2=21-40%) | 3 (3=41-60%) | 2 (2=21-40%) | 3 (3=41-60%) | 1 (1=0-20%) | 1 (1=0-20%) | Pre-emergence Test ECHCG, percentage damage caused to the plant (five-point scale) ([12]; 250 g/Ha (*)): 2 (2=21-40%); Pre-emergence Test ZEAMX, percentage damage caused to the plant (five-point scale) ([2]; 250 g/Ha (*)): 1 (1=0-20%); Pre-emergence Test IPOHE, percentage damage caused to the plant (five-point scale) ([3]; 250 g/Ha (*)): 2 (2=21-40%); Pre-emergence Test AMAPA, percentage damage caused to the plant (five-point scale) ([4]; 250 g/Ha (*)): 1 (1=0-20%); Pre-emergence Test AMARE, percentage damage caused to the plant (five-point scale) ([5]; 250 g/Ha (*)): 0; Post-emergence Test AMARE, percentage damage caused to the plant (five-point scale) ([11]; 250 g/Ha (*)): 1 (1=0-20%); Post-emergence Test AMARE, percentage damage caused to the plant (five-point scale) ([11]; 1000 g/ha): 2 (2=21-40%) |
